Experimental data: US20170183297A1, “OMEGA-3 ANALOGUES” (The University of Sydney, priority 2014, published 2017)

Tests used:
MDA-MB-231 cells = assay: Matrigel migration assay; assay type: cell-based, Human; conditions: 1, 5 and 10 μM, 24 h; P<0.01; FIG. 4
Procedure: Human MDA-MB-231, MDA-MB-468 and T-47D breast cancer cells were obtained from the American Type Culture Collection (ATCC; Manassas, Va., USA). Cells were plated on 96-well microplates at a density of 1×10^4 cells per well for MTT, ATP, Caspase and JC-1 assays. Cells were maintained in Dulbecco's Modified Eagle's Medium (DMEM; Invitrogen, Carlsbad, Calif., USA) supplemented with 10% (w/v) fetal bovine serum (Hyclone, Salt Lake City, Utah, USA), 100 U/mL penicillin, and 100 μg/mL streptomycin (Invitrogen). All of the cells were incubated at 37° C. in a humidified atmosphere of 95% air and 5% CO2. Confluent cells (80-90%) were washed in phosphate-buffered saline, harvested using Trypsin/EDTA, and counted using trypan blue exclusion in a Countess Automated Cell Counter (Invitrogen) before passaging or use in assays.
MDA-MB-231 cells were trypsinized and resuspended in serum-free DMEM media (3.5×10^6 cells/mL). The cell suspension was mixed 1:1 with Matrigel solution (Bio Scientific; Kirrawee, NSW, Australia). Aliquots (20 μL containing 3.5×10^4 cells) were placed into 6-well tissue-culture dishes to form well-defined droplets and incubated at 37° C. for 5 min to enable semi-solidification. Migration media was freshly made as DMEM containing 20% fetal bovine serum, epidermal growth factor 10 pg/mL, hydrocortisone 0.4 ng/mL, vascular endothelial growth factor (VEGF, 1 pg/mL), basic fibroblast growth factor (bFGF, 20 pg/mL), insulin-like growth factor-1 (40 pg/mL), ascorbic acid (2 ng/mL) and heparin (45 ng/mL). Compounds were added in migration media (3 mL/well) and plates were then incubated for 24 h. Cells that migrated out of droplets were scored using phase-contrast microscopy and digital image analysis (Olympus).

[1] = test system: human MDA-MB-231 breast cancer cell xenografts; assay: Dose-response effects on breast tumour growth in nude mice with MDA-MB-231 xenografts (37 days IP); assay type: in vivo, mouse (nu/nu Balb/c, female); conditions: for Average tumour volumes / Final tumour weight at day 37: mean ± SEM, n = 5; for tumour suppression (overall statement): all doses (2.5, 10, 40 mg/kg)
Procedure: Dose-response effects of compounds CP01 and CP03 on breast tumour growth in nude mice with human MDA-MB-231 breast cancer cell xenografts (subcutaneous injection in mammary fat pad)
5 weeks old when ordered, 6 weeks old when xenografted.
human MDA-MB-231 cells, 4×10^5 cells/100 μL (Matrigel:PBS 1:1)/mouse, subcutaneous injection into the third mammary fat pad.
7 groups, 5 mice in each group. After the cell injection, 7 cages were randomly divided into 7 groups following the average mouse body weight of mice each cage. • Control • CP01-2.5 mg/kg • CP01-10 mg/kg • CP01-40 mg/kg • CP03-2.5 mg/kg • CP03-10 mg/kg • CP03-40 mg/kg
Solid CP01 or CP03 powder was dissolved in DMSO at 40° C. to a final concentration of 400 mg/mL.
(§1) After 4 days of cancer cell xenografting, IP administration of compounds CP01 or CP03 was started (2.5, 10 and 40 mg/kg). Compounds were diluted in corn oil containing 4% DMSO. Injection volume was 50 μL each mouse with a 20-gram body weight. IP injections were administered once a day for six days per week for a total of 37 days in duration. In a further study (see below), different doses of CP01, CP03 and CP05 were administered to nude mice carrying MDA-MB-231 xenografts (FIGS. 11, 12 and 13, respectively). The endpoint in this experiment was tumour volume and the experiments were conducted for 32 days.
(§2) Body weights were recorded six days per week and tumour sizes were measured with a pair of caliper, every three to four days.

[2] = Mouse body weight growth in control and treated groups; assay type: in vivo; conditions: IP 2.5, 10 and 40 mg/kg, 37 days; for body weight growth of treated mice compared with control group: once a day six days per week
Procedure: The weight range at the start of IP treatments was from 13.1 g to 18.1 g at Day 1 and increased to a range of 17.1 g to 21.3 g at Day 37.
as §1, §2

With Cc1ccc(NC(=O)NCCCSCCCCCCCCCCCC(=O)O)cc1 [CP02, 12-[(3-{[(4-Methylphenyl)carbamoyl]amino}propyl)sulfanyl]dodecanoic acid] the “migration of MDA-MB-231 cells out of matrigel droplets” value (from here on “migration”) (MDA-MB-231 cells) was “all decreases significant”.
For Cc1ccc(NC(=O)NCCCCCCCCCCCCCSCC(=O)O)cc1 [CP04], the “migration” value (MDA-MB-231 cells) was “all decreases significant”.
O=C(O)CSCCCCCCCCCCCCCNC(=O)Nc1ccc(Cl)c(C(F)(F)F)c1 [CP03, {[13-({[4-Chloro-3-(trifluoromethyl)phenyl]carbamoyl}amino)tridecyl]sulfanyl}acetic acid] gave an Average tumour volumes ([1]; 2.5 mg/kg IP, Day 8) of 8.8 ± 1.4 mm^3, an Average tumour volumes ([1]; 2.5 mg/kg IP, Day 11) of 10.7 ± 1.3 mm^3 and an Average tumour volumes ([1]; 2.5 mg/kg IP, Day 15) of 14.5 ± 0.9 mm^3. The Average tumour volumes ([1]; 2.5 mg/kg IP, Day 18) was 18 ± 1.6 mm^3, the Average tumour volumes ([1]; 2.5 mg/kg IP, Day 21) was 23 ± 2.8 mm^3 and the Average tumour volumes ([1]; 2.5 mg/kg IP, Day 25) was 29.5 ± 6 mm^3. For the same compound, the Average tumour volumes ([1]; 2.5 mg/kg IP, Day 29) was 45.4 ± 9.5 mm^3, the Average tumour volumes ([1]; 2.5 mg/kg IP, Day 32) was 60.9 ± 13.7 mm^3 and the Average tumour volumes ([1]; 2.5 mg/kg IP, Day 35) was 80.4 ± 21^ mm^3. The Average tumour volumes ([1]; 2.5 mg/kg IP, Day 37) was 106.7 ± 29.4 mm^3, the “Final tumour weight at day 37” value ([1]; 2.5 mg/kg IP) was 0.09 ± 0.03 g and the Average tumour volumes ([1]; 10 mg/kg IP, Day 8) was 11.3 ± 2.9 mm^3. The Average tumour volumes ([1]; 10 mg/kg IP, Day 11) was 10.9 ± 1.5 mm^3, the Average tumour volumes ([1]; 10 mg/kg IP, Day 15) was 16.5 ± 2.8 mm^3 and the Average tumour volumes ([1]; 10 mg/kg IP, Day 18) was 19.3 ± 2.1 mm^3. The Average tumour volumes ([1]; 10 mg/kg IP, Day 21) was 17.1 ± 2.9 mm^3, the Average tumour volumes ([1]; 10 mg/kg IP, Day 25) was 23.1 ± 5 mm^3 and the Average tumour volumes ([1]; 10 mg/kg IP, Day 29) was 29 ± 7.5 mm^3. It also gave an Average tumour volumes ([1]; 10 mg/kg IP, Day 32) of 39.3 ± 12.9 mm^3, an Average tumour volumes ([1]; 10 mg/kg IP, Day 35) of 50.3 ± 21.2 mm^3 and an Average tumour volumes ([1]; 10 mg/kg IP, Day 37) of 67.3 ± 33.3 mm^3. For the same compound, the “Final tumour weight at day 37” value ([1]; 10 mg/kg IP) was 0.06 ± 0.03 g, the Average tumour volumes ([1]; 40 mg/kg IP, Day 8) was 13.4 ± 2.3 mm^3 and the Average tumour volumes ([1]; 40 mg/kg IP, Day 11) was 12.5 ± 2^ mm^3. The Average tumour volumes ([1]; 40 mg/kg IP, Day 15) was 17.2 ± 1.9 mm^3, the Average tumour volumes ([1]; 40 mg/kg IP, Day 18) was 24.4 ± 5.5 mm^3 and the Average tumour volumes ([1]; 40 mg/kg IP, Day 21) was 24 ± 5.2 mm^3. The Average tumour volumes ([1]; 40 mg/kg IP, Day 25) was 35.7 ± 10.7 mm^3, the Average tumour volumes ([1]; 40 mg/kg IP, Day 29) was 46.3 ± 16.7 mm^3 and the Average tumour volumes ([1]; 40 mg/kg IP, Day 32) was 65.7 ± 23^ mm^3. For the same compound, the Average tumour volumes ([1]; 40 mg/kg IP, Day 35) was 96.1 ± 33.8 mm^3, the Average tumour volumes ([1]; 40 mg/kg IP, Day 37) was 118.9 ± 44.7 mm^3 and the “Final tumour weight at day 37” value ([1]; 40 mg/kg IP) was 0.09 ± 0.04 g. For the same compound, the “tumour suppression (overall statement)” value [1] was “strong trends toward tumour suppression at all doses”, the “reduction in tumour size (suppression of tumour growth)” value (“reduction in tumour size” below) ([1]; dose 2.5 mg/kg) was 44% and the “reduction in tumour size” value ([1]; dose 10 mg/kg) was 65%. For the same compound, the “reduction in tumour size” value ([1]; dose 40 mg/kg) was 38%, the “evidence of toxicity (from body weight)” value [2] was “no evidence of toxicity” and the “body weight growth of treated mice compared with control group” value [2] was “no significant difference”.
For Cc1ccc(NC(=O)NCCCSCCCCCCCCCSCC(=O)O)cc1 [CP06, ({9-[(3-{[(4-Methylphenyl)carbamoyl]amino}propyl)sulfanyl]nonyl}sulfanyl)acetic acid], the “migration” value (MDA-MB-231 cells) was “all decreases significant”.
With O=C(O)CCCCCCCCCCCSCCCNC(=O)Nc1ccc(Cl)c(C(F)(F)F)c1 [CP01, 12-{[3-({[4-Chloro-3-(trifluoromethyl)phenyl]carbamoyl}amino)propyl]sulfanyl}dodecanoic acid] the Average tumour volumes ([1]; 2.5 mg/kg IP, Day 8) was 12.5 ± 1.9 mm^3, the Average tumour volumes ([1]; 2.5 mg/kg IP, Day 11) was 10.5 ± 1^ mm^3 and the Average tumour volumes ([1]; 2.5 mg/kg IP, Day 15) was 10 ± 2.9 mm^3. For the same compound, the Average tumour volumes ([1]; 2.5 mg/kg IP, Day 18) was 12.2 ± 3.2 mm^3, the Average tumour volumes ([1]; 2.5 mg/kg IP, Day 21) was 16.9 ± 4.4 mm^3 and the Average tumour volumes ([1]; 2.5 mg/kg IP, Day 25) was 23.9 ± 6.1 mm^3. The Average tumour volumes ([1]; 2.5 mg/kg IP, Day 29) was 29.3 ± 7.4 mm^3, the Average tumour volumes ([1]; 2.5 mg/kg IP, Day 32) was 52.1 ± 15 mm^3 and the Average tumour volumes ([1]; 2.5 mg/kg IP, Day 35) was 67.7 ± 17.1 mm^3. For the same compound, the Average tumour volumes ([1]; 2.5 mg/kg IP, Day 37) was 78.7 ± 19.8 mm^3, the “Final tumour weight at day 37” value ([1]; 2.5 mg/kg IP) was 0.05 ± 0.01 g and the Average tumour volumes ([1]; 10 mg/kg IP, Day 8) was 15 ± 2.4 mm^3. The Average tumour volumes ([1]; 10 mg/kg IP, Day 11) was 15.6 ± 1.8 mm^3, the Average tumour volumes ([1]; 10 mg/kg IP, Day 15) was 16.5 ± 2.8 mm^3 and the Average tumour volumes ([1]; 10 mg/kg IP, Day 18) was 22 ± 4.5 mm^3. For the same compound, the Average tumour volumes ([1]; 10 mg/kg IP, Day 21) was 26.4 ± 4.5 mm^3, the Average tumour volumes ([1]; 10 mg/kg IP, Day 25) was 33.6 ± 6.2 mm^3 and the Average tumour volumes ([1]; 10 mg/kg IP, Day 29) was 45.2 ± 11.2 mm^3. For the same compound, the Average tumour volumes ([1]; 10 mg/kg IP, Day 32) was 67.5 ± 19.3 mm^3, the Average tumour volumes ([1]; 10 mg/kg IP, Day 35) was 85.7 ± 25.3 mm^3 and the Average tumour volumes ([1]; 10 mg/kg IP, Day 37) was 116.5 ± 37.6 mm^3. The “Final tumour weight at day 37” value ([1]; 10 mg/kg IP) was 0.08 ± 0.03 g, the Average tumour volumes ([1]; 40 mg/kg IP, Day 8) was 11 ± 1.3 mm^3 and the Average tumour volumes ([1]; 40 mg/kg IP, Day 11) was 13.6 ± 2^ mm^3. For the same compound, the Average tumour volumes ([1]; 40 mg/kg IP, Day 15) was 14.7 ± 0.7 mm^3, the Average tumour volumes ([1]; 40 mg/kg IP, Day 18) was 23.6 ± 2.7 mm^3 and the Average tumour volumes ([1]; 40 mg/kg IP, Day 21) was 26.3 ± 6^ mm^3. The Average tumour volumes ([1]; 40 mg/kg IP, Day 25) was 35.9 ± 13.4 mm^3, the Average tumour volumes ([1]; 40 mg/kg IP, Day 29) was 47.8 ± 17^ mm^3 and the Average tumour volumes ([1]; 40 mg/kg IP, Day 32) was 67.8 ± 26 mm^3. The Average tumour volumes ([1]; 40 mg/kg IP, Day 35) was 116.6 ± 40.7 mm^3, the Average tumour volumes ([1]; 40 mg/kg IP, Day 37) was 132.8 ± 50.9 mm^3 and the “Final tumour weight at day 37” value ([1]; 40 mg/kg IP) was 0.11 ± 0.05 g. The “tumour suppression (overall statement)” value [1] was “strong trends toward tumour suppression at all doses”, the “reduction in tumour size” value ([1]; dose 2.5 mg/kg) was 59% and the “reduction in tumour size” value ([1]; dose 10 mg/kg) was 39%. For the same compound, the “reduction in tumour size” value ([1]; dose 40 mg/kg) was 30%, the “evidence of toxicity (from body weight)” value [2] was “no evidence of toxicity” and the “body weight growth of treated mice compared with control group” value [2] was “no significant difference”.
